Data: patent publication US12077503B2, “Substituted cyclic amides and their use as herbicides” (FMC CORPORATION, priority 2015, dated 2024)
Read-outs that look alike come from different tables or passages of the source.

Columns and labels:
Assay type in all cases: in vivo
[1] = tested on: pigweed (Amaranthus retroflexus); assay: Test A preemergence; conditions: Amaranthus retroflexus, pre-emergence, 240 h; for pest or weed control at 125 g/ha: 125 g ai/ha; for pest or weed control at 500 g/ha: 500 g ai/ha
[2] = tested on: barnyardgrass (Echinochloa crus-galli); assay: Test B flooded paddy test; conditions: Echinochloa crus-galli, Flood, 250 g ai/ha; scale of 0 to 100 where 0 is no effect and 100 is complete control; read-out: Barnyardgrass plant response rating
In short: (§1)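 Evaluation by eye, against controls, occurred 13–15 d post-treatment in a greenhouse, using a 0 (no effect) to 100 (complete control) scale. Application was into the paddy water, 3 cm deep over the soil, on 2-leaf plants.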

rice (Oryra sativa) = assay: Test B flooded paddy test; conditions: Oryza sativa, Flood, 250 g ai/ha; scale of 0 to 100 where 0 is no effect and 100 is complete control; read-out: Rice plant response rating
In short: as §1

[3] = tested on: sedge, umbrella (small-flower umbrella sedge, Cyperus difformis); assay: Test B flooded paddy test; conditions: Cyperus difformis, Flood, 250 g ai/ha; scale of 0 to 100 where 0 is no effect and 100 is complete control; read-out: Sedge, Umbrella plant response rating
In short: as §1

[4] = tested on: ducksalad (Heteranthera limosa); assay: Test B flooded paddy test; conditions: Heteranthera limosa, Flood, 250 g ai/ha; scale of 0 to 100 where 0 is no effect and 100 is complete control; read-out: Ducksalad plant response rating
In short: as §1

corn (Zea mays) = assay: Test A postemergence; conditions: Zea mays, post-emergence, 240 h, 125 g ai/ha; for plant injury at 125 g/ha: postemergence, visual injury rating after approximately 10 d, read-out: Corn plant response rating (0 to 100 scale, 0 no effect, 100 complete control)
In short: (§2)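 Compounds were formulated in a non-phytotoxic solvent mixture with surfactant and applied as a preemergence directed soil spray after seeding, or sprayed postemergence over plants 2 to 10 cm tall at the one- to two-leaf stage. Evaluation after about 10 d compared treated with untreated controls, using a scale from 0 (no effect) to 100 (complete control).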

[5] = tested on: blackgrass (Alopecurus myosuroides); assay: Test A postemergence; conditions: Alopecurus myosuroides, post-emergence, 240 h, 125 g ai/ha
In short: as §2

[6] = tested on: Galium (catchweed bedstraw, Galium aparine); assay: Test A postemergence; conditions: Galium, post-emergence, 240 h, 125 g ai/ha
In short: as §2

[7] = tested on: ragweed (common ragweed, Ambrosia elatior); assay: Test A postemergence; conditions: Ambrosia artemisiifolia, post-emergence, 240 h, 125 g ai/ha
In short: as §2

[8] = tested on: giant foxtail (Setaria faberii); assay: Test A postemergence; conditions: Setaria faberi, post-emergence, 240 h, 125 g ai/ha
In short: as §2

[9] = tested on: barnyardgrass (Echinochloa crus-galli); assay: Test A postemergence; conditions: Echinochloa crus-galli, post-emergence, 240 h, 125 g ai/ha
In short: as §2

[10] = tested on: ryegrass, Italian (Italian ryegrass, Lolium multiflorum); assay: Test A postemergence; conditions: Lolium multiflorum, post-emergence, 240 h, 125 g ai/ha
In short: as §2

[11] = tested on: pigweed (Amaranthus retroflexus); assay: Test A postemergence; conditions: Amaranthus retroflexus, post-emergence, 240 h, 125 g ai/ha
In short: as §2

Kochia (Kochia scoparia) = assay: Test A postemergence; conditions: Bassia scoparia, post-emergence, 240 h, 125 g ai/ha
In short: as §2

[12] = tested on: wheat (Triticum aestivum); assay: Test A postemergence; conditions: Triticum aestivum, post-emergence, 240 h, 125 g ai/ha
In short: as §2

[13] = preemergence, 0 to 100 scale where 0 is no effect and 100 is complete control, read-out: Pigweed plant response rating
[14] = Preemergence, visual injury vs untreated controls after approximately 10 d, read-out: Pigweed plant response rating (0 to 100 scale where 0 is no effect and 100 is complete control)
[15] = postemergence, visual injury rating after approximately 10 d, read-out: Blackgrass plant response rating (0 to 100 scale, 0 no effect, 100 complete control)
[16] = postemergence, visual injury rating after approximately 10 d, read-out: Galium plant response rating (0 to 100 scale, 0 no effect, 100 complete control)
[17] = postemergence, visual injury rating after approximately 10 d, read-out: Ragweed plant response rating (0 to 100 scale, 0 no effect, 100 complete control)
[18] = postemergence, visual injury rating after approximately 10 d, read-out: Foxtail, Giant plant response rating (0 to 100 scale, 0 no effect, 100 complete control)
[19] = postemergence, visual injury rating after approximately 10 d, read-out: Barnyardgrass plant response rating (0 to 100 scale, 0 no effect, 100 complete control)
[20] = postemergence, visual injury rating after approximately 10 d, read-out: Ryegrass, Italian plant response rating (0 to 100 scale, 0 no effect, 100 complete control)
[21] = postemergence, visual injury rating after approximately 10 d, read-out: Pigweed plant response rating (0 to 100 scale, 0 no effect, 100 complete control)
[22] = postemergence, visual injury rating after approximately 10 d, read-out: Kochia plant response rating (0 to 100 scale, 0 no effect, 100 complete control)
[23] = postemergence, visual injury rating after approximately 10 d, read-out: Wheat plant response rating (0 to 100 scale, 0 no effect, 100 complete control)

Structure (SMILES): Cc1ccc([C@H]2CNC(=S)[C@@H]2C(=O)Nc2cccc(F)c2F)cc1 (racemic) [Compound 946]
- pest or weed control at 125 g/ha ([1]; Preemergence, visual injury rating after approximately 10 d, read-out: Pigweed plant response rating (0 to 100 scale, 0 is no effect, 100 is complete control)): 0%
- pest or weed control at 500 g/ha ([1]; preemergence, visual injury rating about 10 d after treatment, 0 to 100 scale (0 no effect, 100 complete control), read-out: Pigweed plant response rating): 0%
- pest or weed control at 250 g/ha [2]: 0%
- pest or weed control at 250 g/ha (rice (Oryra sativa)): 0%
- pest or weed control at 250 g/ha [3]: 0%
- pest or weed control at 250 g/ha [4]: 0%
- Corn plant response rating (crop injury, 0 = no effect, 100 = complete kill) at 125 g/ha (corn (Zea mays); Postemergence, visual injury after approximately 10 d, 0 to 100 scale where 0 is no effect and 100 is complete control): 0%
- pest or weed control at 125 g/ha ([5]; Postemergence, visual injury after approximately 10 d, 0 to 100 scale where 0 is no effect and 100 is complete control, read-out: Plant response rating, Blackgrass): 0%
- pest or weed control at 125 g/ha ([6]; Postemergence, visual injury after approximately 10 d, 0 to 100 scale where 0 is no effect and 100 is complete control, read-out: Plant response rating, Galium): 0%
- pest or weed control at 125 g/ha ([7]; Postemergence, visual injury after approximately 10 d, 0 to 100 scale where 0 is no effect and 100 is complete control, read-out: Plant response rating, Ragweed): 0%
- pest or weed control at 125 g/ha ([8]; Postemergence, visual injury after approximately 10 d, 0 to 100 scale where 0 is no effect and 100 is complete control, read-out: Plant response rating, Foxtail, Giant): 0%
- pest or weed control at 125 g/ha ([9]; Postemergence, visual injury after approximately 10 d, 0 to 100 scale where 0 is no effect and 100 is complete control, read-out: Plant response rating, Barnyardgrass): 60%
- pest or weed control at 125 g/ha ([10]; Postemergence, visual injury after approximately 10 d, 0 to 100 scale where 0 is no effect and 100 is complete control, read-out: Plant response rating, Ryegrass, Italian): 0%
- pest or weed control at 125 g/ha ([11]; Postemergence, visual injury after approximately 10 d, 0 to 100 scale where 0 is no effect and 100 is complete control, read-out: Plant response rating, Pigweed): 0%
- pest or weed control at 125 g/ha (Kochia (Kochia scoparia); Postemergence, visual injury after approximately 10 d, 0 to 100 scale where 0 is no effect and 100 is complete control, read-out: Plant response rating, Kochia): 0%
- plant injury at 125 g/ha ([12]; Postemergence, visual injury after approximately 10 d, 0 to 100 scale where 0 is no effect and 100 is complete control, read-out: Plant response rating, Wheat): 0%

Structure (SMILES): CN1C[C@H](c2cc(F)c(F)c(F)c2)[C@@H](C(=O)Nc2ccccc2S(C)(=O)=O)C1=O [Compound 880]
- pest or weed control at 125 g/ha [1, 13]: 70%
- pest or weed control at 500 g/ha [1, 14]: 90%
- pest or weed control at 250 g/ha [2]: 60%
- pest or weed control at 250 g/ha (rice (Oryra sativa)): 0%
- pest or weed control at 250 g/ha [3]: 0%
- pest or weed control at 250 g/ha [4]: 100%
- plant injury at 125 g/ha (corn (Zea mays)): 20%
- pest or weed control at 125 g/ha [5, 15]: 0%
- pest or weed control at 125 g/ha [6, 16]: 60%
- pest or weed control at 125 g/ha [7, 17]: 40%
- pest or weed control at 125 g/ha [8, 18]: 80%
- pest or weed control at 125 g/ha [9, 19]: 90%
- pest or weed control at 125 g/ha [10, 20]: 50%
- pest or weed control at 125 g/ha [11, 21]: 50%
- pest or weed control at 125 g/ha (Kochia (Kochia scoparia); [22]): 20%
- plant injury at 125 g/ha [12, 23]: 40%

Structure (SMILES): Cc1c(F)ccc([C@H]2CNC(=O)[C@@H]2C(=O)Nc2ccc(F)c(F)c2F)c1F [Compound 830]
- pest or weed control at 125 g/ha [1, 13]: 20%
- pest or weed control at 500 g/ha [1, 14]: 40%
- pest or weed control at 250 g/ha [2]: 20%
- pest or weed control at 250 g/ha (rice (Oryra sativa)): 0%
- pest or weed control at 250 g/ha [3]: 0%
- pest or weed control at 250 g/ha [4]: 100%
- plant injury at 125 g/ha (corn (Zea mays)): 0%
- pest or weed control at 125 g/ha [5, 15]: 20%
- pest or weed control at 125 g/ha [6, 16]: 30%
- pest or weed control at 125 g/ha [7, 17]: 0%
- pest or weed control at 125 g/ha [8, 18]: 70%
- pest or weed control at 125 g/ha [9, 19]: 90%
- pest or weed control at 125 g/ha [10, 20]: 20%
- pest or weed control at 125 g/ha [11, 21]: 0%
- pest or weed control at 125 g/ha (Kochia (Kochia scoparia); [22]): 30%
- plant injury at 125 g/ha [12, 23]: 0%
